The text below walks through data of PMC12392461, “Beyond Estrogenicity: A Comparative Assessment of Bisphenol A and Its Alternatives in In Vitro Assays Questions Safety of Replacements” (Environmental Science & Technology, 2025).

Where two headings read alike, the source gives them in different places.

One data set deals with keratinocytes. More on the design: method as in Son et al. Particulars: ref Son et al.; cited from earlier work.
On the set-up of data set [1]: method as in ref 12 (ECHA). To be noted: ref 12 (ECHA), cited from earlier work.
Details of data set [2]: method as in ref EFSA. To be noted: in vitro and in vivo data; ref EFSA; cited from earlier work.
The nature of data set [3]: Abiotic CYP (aCYP) oxidation, remaining parent compound (Cparent-Ratio).
Description: The mixtures were adjusted to a final volume of 100 μL with acetonitrile (ACN). The reaction mix was incubated for 15 min at 30 °C and 1000 rpm on a Bioshake iQ orbital shaker from QInstruments (Jena, Germany). Additionally, a mixture without test compounds was prepared as a control. Subsequently, 10 μL of the reaction mixture was transferred into a conical dosing vial and evaporated under a nitrogen flow.
For chemical analysis, 10 μL of the reaction mixture was concentrated under vacuum (CentriVap, Labconco, Kansas City, MO, USA), diluted to 1 mg/L in ACN or ethyl acetate. The chemical analysis of the reaction mixtures was performed using liquid chromatography (LC) and gas chromatography (GC) coupled with various detection techniques, preferably Multiple Reaction Monitoring (MRM). Data acquisition and processing were carried out using the software MassHunter. Quantification was based on external calibrations.
The Cparent-Ratio quantifies the extent of oxidation of the parent compound after the abiotic CYP reaction. It was calculated as the ratio of the parent compound concentration after oxidation (C parent, after oxidation) to its concentration before oxidation (C parent, before oxidation) as shown in eq . […] 8 Cparent‐Ratio=Cparent,after oxidation/Cparent,before oxidation
The test system of data set [4] is Tox21 assays. To be noted: re-evaluated Tox21 data, ref Adamovsky et al 2024, cited from earlier work.
Data set [5] has as its system Tox21 assays. The experiment in a line: Re-evaluated Tox21 data (Adamovsky et al.), REPBPA and SRbaseline.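 As to all read-outs here: published Tox21 results reanalysed with a revised model predicting baseline toxicity.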 Particulars: for REPBPA: Relative Effect Potency; for SRbaseline: Specificity Ratio.
Excerpt: We also reanalyzed the Tox21 data of Adamovsky et al. with the updated baseline toxicity prediction model (Table S2).
The next data set has as its target T1, Estrogen Receptor ERα (Homo sapiens, UniProt P03372).
T1 sequence (P03372 311-547 limits assumed): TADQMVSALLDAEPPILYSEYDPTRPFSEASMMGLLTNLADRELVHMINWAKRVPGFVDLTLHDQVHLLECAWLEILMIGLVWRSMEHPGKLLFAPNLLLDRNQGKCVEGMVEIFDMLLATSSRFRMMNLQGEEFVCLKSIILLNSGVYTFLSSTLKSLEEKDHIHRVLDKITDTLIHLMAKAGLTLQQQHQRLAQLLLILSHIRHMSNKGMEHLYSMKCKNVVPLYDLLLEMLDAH
Put plainly: cell-based. To be noted: This Study. From the text:
All bioassay media components and the ERα-UAS-bla GripTite and PPARγ-UAS-bla cells were obtained from Thermo Fisher Scientific (Waltham, MA, USA). AREc32 reporter gene cells based on MCF7 were provided by C. Roland Wolf (Cancer Research UK); AhR CALUX cells (H4L7.5c2 derived from H4IIe) were provided by Michael Denison (UC Davis, USA); and SH-SY5Y cells were purchased from Sigma-Aldrich.
Cell culture conditions and bioassay protocols including response detection are provided in Text S2.1–2.4 and Table S3. − Cell viability was determined from cell confluency using an IncuCyte S3 Live-Cell Analysis System (Sartorius AG, Essen, Germany) before and after exposure, except for SH-SY5Y cells (live–dead staining with Nuclear Green LcS1 and propidium iodide, Abcam, UK). For metabolic activation experiments, cell viability was assessed using the ToxBLAzer DualScreen Kit (Thermo Fisher Scientific) to capture the remaining toxicity in ERα-UAS-bla GripTite after treatment with the aCYP catalyst (details in Text S2.4).
For ARE, the concentration that triggered an induction ratio of 1.5 (ECIR1.5) was used as the benchmark value, as detailed in Text S2.5. IC10 values also served as a threshold for data analysis in all assays; only concentrations below IC10 were considered when deriving EC10 or ECIR1.5.
The maximum efficacy (Emax%) refers to the maximum of the log–logistic concentration–response curve attained by test chemicals compared to the reference chemical’s maximum and was obtained for both ERα and PPARγ. […]
S2: Cell culture and bioassays
S2.1: Cell Culturing Conditions
All suppliers and sources are given in detail in SI-Excel S3. The bioassay media for the different assays were prepared as follows: Assay medium for ER alpha-UAS-bla GripTite (ERα) and […]
2% charcoal-stripped FBS, and 100 U/mL penicillin-streptomycin. […]
S2.2: Cell Seeding and Incubation. For all bioassays, cell suspensions in the respective assay medium were dispensed into each well of 384-well plates using a MultiFlo Dispenser (Biotek, (now Agilent), Winooski, VT, U.S.). After seeding, the plates were incubated at 37° C and 5% CO₂ for […]. The final cell densities and plate types were as follows: Black poly-D-lysine […]
6500 cells/well, ERα: 5000 cells/well. White 384-well plates with a clear bottom (Product No. […]
S2.3: Chemical Dosing and Assay Analysis Procedures.

The next data set has as its system ERα. Particulars: ref Pelch et al 2019; cited from earlier work.
The mark [6] stands for this setting: TOX21_AR_LUC_MDAKB2_Antagonist_0,5nM_R1881.
Where [7] appears, read: TOX21_PPARg_BLA_antagonist_ratio.

Turning to `CC1(C)C(O)C(C)(C)C1O` (centres unmarked) [TMCD, 2,2,4,4-tetramethyl-1,3-cyclobutanediol], the “concentration with statistically significant reduced cell viability” value in the data set on keratinocytes is 350 µM. Also, the “degradation in OECD guideline test 301B” value in data set [1] (aqueous solution) was “no degradation”. Moreover, the “time reported to remain stable” value in data set [1] is on record as 22 days. In addition, the genotoxicity categorisation result in data set [2] is “nongenotoxic”. Further, in data set [3], the “parent compound during aCYP oxidation” value was “remained unchanged”.
As to `O=S(=O)(c1ccc(O)cc1)c1ccccc1O` [2, 4BPS], the “% Loss” value in data set [3] (Table S9, loss of parent after aCYP oxidation) is given as -4.66%. Besides, the “Cparent-Ratio Mean” value in data set [3] (Table S9, mean of two replicate experiments) turned out to be 1.05. Moreover, the “Cparent-Ratio Rep.1 %” value in data set [3] (Table S9, replicate 1) is given as 108.33%. The “Cparent-Ratio Rep.1” value in data set [3] (Table S9, replicate 1, as fraction) is 1.08. Further, the “Cparent-Ratio Rep.2 %” value in data set [3] (Table S9, replicate 2) stood at 100.98%. In data set [3] (Table S9, replicate 2, as fraction), the “Cparent-Ratio Rep.2” value was 1.01.
`Cc1cc(C(C)(C)c2ccc(O)c(C)c2)ccc1O` [BPC]: the EC10 is 1880 nM in the data set on Tox21 assays [4] (ATG_PPARg_TRANS_up), 850 nM in the data set on Tox21 assays [4] (setting [6]) and 3090 nM in the data set with Tox21 assays [4] (setting [7]). The REPBPA is recorded as 0.85 in the data set on Tox21 assays [5] (ATG_PPARg_TRANS_up) and 2.85 with Tox21 assays [5] (setting [6]). Besides, the results for the SRbaseline in the data set with Tox21 assays [5] (ATG_PPARg_TRANS_up), in the data set with Tox21 assays [5] (setting [6]) and with Tox21 assays [5] (setting [7]) were 17.78, 39.40 and 10.83, respectively.
For the compound `O=S(=O)(c1ccc(O)cc1)c1ccccc1O` [24BPS], the Efficacy % is recorded as 19.00% at Estrogen Receptor ERα and 24.30% in the data set with ERα. Further, the EC10 at Estrogen Receptor ERα (ERα, in M) is 1.98E-05. For the same compound, on Estrogen Receptor ERα (relative estrogenic potency vs BPA), the REPBPA is listed as 1.87E-02.
